These results are taken from patent publication USRE38257E1, “Piperdine derivatives and hypotensives containing the same” (Ajinomoto Co., Inc., priority 1988, dated 2003).

The test relates to male spontaneously hypertensive rats. The experiment in a line: Decrease in systolic blood pressure in spontaneously hypertensive rats after intravenous bolus injection, indirect (tail-cuff) method. The format is in vivo, rat. The settings on record: for Decrease in systolic blood pressure (mmHg) time after administration (hour) 0.5: 0.5 hour after administration; for Decrease in systolic blood pressure (mmHg) time after administration (hour) 4: 4 hours after administration. As to the method: As test animals, four male spontaneously hypertensive rats (weight 400 to 440 g) that were sufficiently adapted for feeding and in which hypertension was confirmed were used.
Physiological saline aqueous solution containing 2.5% Nicolle and 2.5% ethanol of sample was intravenously administered by bolus injection at a dose of 1 ml per 1 kg of body weight. Systolic blood pressure after administration was measured by the indirect (tail-cuff) method.

On to “5-(4-(5H-Dibenzo[a,d]cyclohepten-5-ylidene)-1-piperidinyl)-2-isopropyl-2-phenylvaleronitrile hydrochloride [Example 122]”, for which, under “dose 10 mg/kg i.v. bolus”, the “Decrease in systolic blood pressure (mmHg) time after administration (hour) 0.5” value (“Decrease in systolic blood pressure … (hour) 0.5” below) is −120 mmHg and the “Decrease in systolic blood pressure (mmHg) time after administration (hour) 4” value (from here on “Decrease in systolic blood pressure … (hour) 4”) was −62 mmHg.

On to `C1=Cc2ccccc2C(=C2CCN(CCCCCCCC3CCCCC3)CC2)c2ccccc21.Cl` [Example 155, 1-Cyclohexyl-7-(4-(5H-dibenzo[a,d]cyclohepten-5-ylidene)-1-piperidinyl)heptane hydrochloride], for which, under “dose 10 mg/kg i.v. bolus”, the “Decrease in systolic blood pressure … (hour) 0.5” value is reported as −131 mmHg and the “Decrease in systolic blood pressure … (hour) 4” value is listed as −105 mmHg.

In the case of `Cl.Nc1ccccc1C=CCN1CCC(=C2c3ccccc3C=Cc3ccccc32)CC1` [Example 303, 1-(2-Aminocinnamyl)-4-(5H-dibenzo[a,d]cyclohepten-5-ylidene)-1-piperidine hydrochloride], under “dose 3 mg/kg i.v. bolus”, the “Decrease in systolic blood pressure … (hour) 0.5” value is listed as −90 mmHg and the “Decrease in systolic blood pressure … (hour) 4” value is −19 mmHg.

Take `Cl.O=C(CCCN1CCC(=C2c3ccccc3C=Cc3ccccc32)CC1)c1cccs1` [Example 234, 4-(4-(5H-Dibenzo[a,d]cyclohepten-5-ylidene)-1-piperidinyl)-1-(2-thienyl)-1-butanone hydrochloride]: for the setting “dose 10 mg/kg i.v. bolus”, the “Decrease in systolic blood pressure … (hour) 0.5” value is given as −96 mmHg and the “Decrease in systolic blood pressure … (hour) 4” value is −2 mmHg.

Regarding `CC(CC(=O)c1ccccc1)N1CCC(=C2c3ccccc3C=Cc3ccccc32)CC1.Cl` (centres unmarked) [Example 100, 3-(4-(5H-Dibenzo[a,d]cyclohepten-5-ylidene)-1-piperidinyl)butyrophenone hydrochloride], where the note is “dose 10 mg/kg i.v. bolus”, the “Decrease in systolic blood pressure … (hour) 0.5” value was −35 mmHg and the “Decrease in systolic blood pressure … (hour) 4” value is recorded as −5 mmHg.

As for `C1=Cc2ccccc2C(=C2CCN(CCCCc3ccccc3)CC2)c2ccccc21.Cl` [Example 15, 4-(4-(5H-Dibenzo[a,d]cyclohepten-5-ylidene)-1-piperidinyl)-1-phenylbutane hydrochloride], under “dose 10 mg/kg i.v. bolus”, the “Decrease in systolic blood pressure … (hour) 0.5” value is reported as −130 mmHg and the “Decrease in systolic blood pressure … (hour) 4” value is listed as −136 mmHg.

Turning to `COc1ccc(CCCN2CCC(=C3c4ccccc4C=Cc4ccccc43)CC2)cc1OC.Cl` [Example 201, 4-(5H-Dibenzo[a,d]cyclohepten-5-ylidene)-1-(-3-(3′,4′-dimethoxyphenyl)propyl)piperidine hydrochloride], under “dose 10 mg/kg i.v. bolus”, the “Decrease in systolic blood pressure … (hour) 0.5” value is listed as −118 mmHg and the “Decrease in systolic blood pressure … (hour) 4” value was −21 mmHg.

On to `COc1cccc(CCCN2CCC(=C3c4ccccc4C=Cc4ccccc43)CC2)c1OC.Cl` [Example 286, 3-(4-(5H-Dibenzo[a,d]cyclohepten-5-ylidene)-1-piperidinyl)-1-(2,3-dimethoxyphenyl)propane hydrochloride], for which, for the setting “dose 10 mg/kg i.v. bolus”, the “Decrease in systolic blood pressure … (hour) 0.5” value was −134 mmHg and the “Decrease in systolic blood pressure … (hour) 4” value is −40 mmHg.

With “5-(4-(5H-Dibenzo[a,d]cyclohepten-5-ylidene)-1-piperidine hydrochloride [Example 116]”, under “dose 10 mg/kg i.v. bolus”, the “Decrease in systolic blood pressure … (hour) 0.5” value is −36 mmHg and the “Decrease in systolic blood pressure … (hour) 4” value is −12 mmHg.

As for `Cl.O=[N+]([O-])c1cccc(C=CCN2CCC(=C3c4ccccc4C=Cc4ccccc43)CC2)c1` [Example 306, 4-(5H-Dibenzo[a,d]cyclohepten-5-ylidene)-1-(3-nitrocinnamyl)piperidine hydrochloride], under “dose 10 mg/kg i.v. bolus”, the “Decrease in systolic blood pressure … (hour) 0.5” value is on record as −138 mmHg and the “Decrease in systolic blood pressure … (hour) 4” value is reported as −37 mmHg.

With `COc1ccc(CN2CCC(=C3c4ccccc4C=Cc4ccccc43)CC2)cc1.Cl` [Example 119, 4-(5H-Dibenzo[a,d]cyclohepten-5-ylidene)-1-(4-methoxybenzyl)piperidine hydrochloride], where the note is “dose 10 mg/kg i.v. bolus”, the “Decrease in systolic blood pressure … (hour) 0.5” value was −34 mmHg and the “Decrease in systolic blood pressure … (hour) 4” value is reported as −5 mmHg.

As for `COc1cc(C=CCN2CCC(=C3c4ccccc4C=Cc4ccccc43)CC2)ccc1OC(C)=O.Cl` [Example 366, 1-(4-Acetoxy-3-methoxycinnamyl)-4-(5H-Dibenzo[a,d]cyclohepten-5-ylidene)-1-piperidine hydrochloride], under “dose 3 mg/kg i.v. bolus”, the “Decrease in systolic blood pressure … (hour) 0.5” value is on record as −152 mmHg and the “Decrease in systolic blood pressure … (hour) 4” value is −113 mmHg.

For the compound “1-(4-Methoxyxyxlohexyl)-4-(4-(5H-dibenzo[a,d]cyclohepten-5-ylidene)-1-piperidinyl)butane hydroxybutane hydrochloride [Example 208]”, under “dose 10 mg/kg i.v. bolus”, the “Decrease in systolic blood pressure … (hour) 0.5” value is −131 mmHg and the “Decrease in systolic blood pressure … (hour) 4” value is on record as −19 mmHg.

Turning to `C1=Cc2ccccc2C(=C2CCN(CCCCC3CCCCC3)CC2)c2ccccc21.Cl` [Example 228], for the setting “dose 3 mg/kg i.v. bolus”, the “Decrease in systolic blood pressure … (hour) 0.5” value is −112 mmHg and the “Decrease in systolic blood pressure … (hour) 4” value was −14 mmHg.

As for `Cc1ccccc1CN1CCC(=C2c3ccccc3C=Cc3ccccc32)CC1.Cl` [Example 131, 4-(5H-Dibenzo[a,d]cyclohepten-5-ylidene)-1-(2-methylbenyl)piperidine hydrochloride], under “dose 10 mg/kg i.v. bolus”, the “Decrease in systolic blood pressure … (hour) 0.5” value is reported as −116 mmHg and the “Decrease in systolic blood pressure … (hour) 4” value is reported as 2 mmHg.

Turning to `CC(=O)Nc1ccc(CCCN2CCC(=C3c4ccccc4C=Cc4ccccc43)CC2)cc1.Cl.Cl` [Example 249, 1-(4-Acetylaminophenyl)-3-(4-(5H-Dibenzo[a,d]cyclohepten-5-ylidene)-1-piperidinyl)propane dihydrochloride], for the setting “dose 10 mg/kg i.v. bolus”, the “Decrease in systolic blood pressure … (hour) 0.5” value is reported as −121 mmHg and the “Decrease in systolic blood pressure … (hour) 4” value is −100 mmHg.

On to `COc1ccccc1CN1CCC(=C2c3ccccc3C=Cc3ccccc32)CC1.Cl` [Example 117, 4-(5H-Dibenzo[a,d]cyclohepten-5-ylidene)-1-(2-methoxybenzyl)piperidine hydrochloride], for which, under “dose 10 mg/kg i.v. bolus”, the “Decrease in systolic blood pressure … (hour) 0.5” value is given as −143 mmHg and the “Decrease in systolic blood pressure … (hour) 4” value is listed as −25 mmHg.

Regarding `COC1=C(OC)CC2=CC=CC(CN3CCC(=C4c5ccccc5C=Cc5ccccc54)CC3)=CC2=C1.Cl` [Example 319, 6-(4-(5H-Dibenzo[a,d]cyclohepten-5-ylidene)-1-piperidinyl)methyl-2,3-dimethoxybenzocycloheptene hydrochloride], for the setting “dose 10 mg/kg i.v. bolus”, the “Decrease in systolic blood pressure … (hour) 0.5” value was −104 mmHg and the “Decrease in systolic blood pressure … (hour) 4” value is given as −20 mmHg.

For `C1=Cc2ccccc2C(=C2CCN(CCCOC3CCCCC3)CC2)c2ccccc21.Cl` [Example 218, Cyclohexyl 3-(4-(5H-Dibenzo[a,d]cyclohpetan-5-ylidene)-1-piperidinyl)propylether hydrochloride], where the note is “dose 10 mg/kg i.v. bolus”, the “Decrease in systolic blood pressure … (hour) 0.5” value is −97 mmHg and the “Decrease in systolic blood pressure … (hour) 4” value is given as −11 mmHg.
